Laboratory results taken from patent US20240116985A1, “STAPLED PEPTIDES AND METHODS THEREOF” (priority 2020, published 2024).
Read-outs that look alike come from different tables or passages of the source.

How the values were obtained:
[1] = target: T1, full-length beta-Catenin (Uniprot ID P35222) (Homo sapiens, UniProt P35222); assay: Fluorescence polarization IC50 (beta-catenin / 5FAM-TCF4 10-53 competition); format: binding
T1 construct: 10 nM full-length beta-Catenin (Uniprot ID P35222)
T1 sequence (P35222 1-781): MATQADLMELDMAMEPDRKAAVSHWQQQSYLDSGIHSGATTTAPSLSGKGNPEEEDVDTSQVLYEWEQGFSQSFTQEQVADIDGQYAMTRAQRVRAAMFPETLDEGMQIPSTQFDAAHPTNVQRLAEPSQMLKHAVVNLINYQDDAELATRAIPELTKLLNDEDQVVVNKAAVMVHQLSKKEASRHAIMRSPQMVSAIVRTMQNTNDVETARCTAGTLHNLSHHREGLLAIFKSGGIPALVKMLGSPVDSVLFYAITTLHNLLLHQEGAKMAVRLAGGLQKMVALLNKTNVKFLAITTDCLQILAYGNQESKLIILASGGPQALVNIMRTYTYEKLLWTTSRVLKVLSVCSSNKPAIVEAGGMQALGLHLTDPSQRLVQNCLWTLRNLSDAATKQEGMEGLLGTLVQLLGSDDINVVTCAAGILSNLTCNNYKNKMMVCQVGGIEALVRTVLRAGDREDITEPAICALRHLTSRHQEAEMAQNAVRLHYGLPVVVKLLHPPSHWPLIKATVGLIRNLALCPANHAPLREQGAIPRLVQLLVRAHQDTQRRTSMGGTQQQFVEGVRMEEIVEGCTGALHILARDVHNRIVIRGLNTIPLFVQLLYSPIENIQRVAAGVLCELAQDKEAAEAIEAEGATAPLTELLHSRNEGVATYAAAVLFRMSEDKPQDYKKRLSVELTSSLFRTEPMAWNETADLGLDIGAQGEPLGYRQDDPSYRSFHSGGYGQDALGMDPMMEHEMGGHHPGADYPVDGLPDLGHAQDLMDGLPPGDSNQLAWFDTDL

CHI Log D procedure = format: physicochemical; settings: for CHI Log D: pH 7.4; for chromatographic logD: pH 7.4, CHI Log D
[2] = target: T2, full-length B-Catenin (Uniprot ID P35222) (Homo sapiens, UniProt P35222); assay: Alphascreen binding assay (beta-catenin / biotin-TCF4 10-53)
T2 construct: 65 nM full-length B-Catenin (Uniprot ID P35222)
T2 sequence (P35222 1-781): T1 sequence (P35222 1-781)
Summary of the method: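 Final concentrations: 65 nM full-length human β-catenin plus 10 nM biotin-TCF4(10-53) peptide, test peptide 3-fold from 10 uM to 5 nM, preincubated 15 min at 20 °C in Tris pH 8.0/250 mM NaCl buffer. Nickel-chelate AlphaScreen donor/acceptor beads then added for 60 min in the dark; duplicate reads fitted to 1:1 binding model with Hill slope.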

[3] = Table E2-1, read-out: beta-Catenin FP IC50
[4] = fluorescence polarization, beta-catenin, read-out: FP EC50

SMILES	IC50 [1, 3] [nM]	IC50 [1, 4] [nM]	CHI Log D (CHI Log D procedure)	EC50 [2] [nM]	chromatographic logD (CHI Log D procedure)
CC(=O)N1CCC[C@]12CC=CCCCC1(CCCC=CCCCCCC[C@@](C)(C(=O)N[C@@H](Cc3ccccc3)C(=O)N[C@@H](Cc3c[nH]c4ccccc34)C(=O)N[C@@H](C)C(N)=O)NC(=O)[C@H](C(C)C)NC(=O)[C@H](Cc3ccccc3)NC(=O)[C@H](C)NC(=O)[C@H](C)NC(=O)[C@H](CC(=O)O)NC(=O)[C@H](CC(=O)O)NC1=O)NC(=O)[C@H](C)NC(=O)[C@H](CC(=O)O)NC2=O (stereo partly drawn) [I-291, Ac-PL3-Asp-Ala-B5-Asp-Asp-Ala-Ala-Phe-Val-S8-Phe-Trp-Ala-NH2]	3130	3130	2.195	327	–
CC(=O)N1CCC[C@]12CC=CCCCC1(CCCC=CCCCCCC[C@@](C)(C(=O)N[C@@H](Cc3ccccc3)C(=O)N[C@@H](Cc3c[nH]c4ccccc34)C(=O)N[C@@H](C)C(N)=O)NC(=O)[C@H](C(C)C)NC(=O)[C@H](Cc3ccccc3)NC(=O)[C@H](C)NC(=O)[C@H](C)NC(=O)[C@H](CC(=O)O)NC(=O)[C@H](CC(=O)O)NC1=O)NC(=O)[C@H](C)NC(=O)[C@H](CC(=O)O)NC2=O (stereo partly drawn) [I-292, Ac-PL3-Asp-Ala-B5-Asp-Asp-Ala-Ala-Phe-Val-S8-Phe-Trp-Ala-NH2]	1870	1870	2.208	187	–
CC(=O)N1CCC[C@]12CC=CCCCC1(CCCC=CCCCCCC[C@@](C)(C(=O)N[C@@H](Cc3ccccc3)C(=O)N[C@@H](Cc3csc4ccccc34)C(=O)N[C@@H](CCC(N)=O)C(N)=O)NC(=O)[C@H](C(C)C)NC(=O)[C@H](Cc3ccccc3)NC(=O)[C@H](C)NC(=O)[C@H](C)NC(=O)[C@H](CN(CC(=O)O)CC(F)(F)F)NC(=O)[C@H](CC(=O)O)NC1=O)NC(=O)[C@H](C)NC(=O)[C@H](CC(=O)O)NC2=O (stereo partly drawn) [I-293, Ac-PL3-Asp-Ala-B5-Asp-TfeGA-Ala-Ala-Phe-Val-S8-Phe-BztA-Gln-NH2]	139	–	–	41	2.38
CC(=O)N1CCC[C@]12CC=CCCCC1(CCCC=CCCCCCC[C@@](C)(C(=O)N[C@@H](Cc3ccccc3)C(=O)N[C@@H](Cc3csc4ccccc34)C(=O)N[C@@H](CCC(N)=O)C(N)=O)NC(=O)[C@H](CCC(N)=O)NC(=O)[C@H](Cc3ccccc3)NC(=O)[C@H](C)NC(=O)[C@H](C)NC(=O)[C@H](CC(=O)O)NC(=O)[C@H](CC(=O)O)NC1=O)NC(=O)[C@H](C)NC(=O)[C@H](CC(=O)O)NC2=O (stereo partly drawn) [I-294, Ac-PL3-Asp-Ala-B5-Asp-Asp-Ala-Ala-Phe-Gln-S8-Phe-BztA-Gln-NH2]	130	–	–	40	2
CC(=O)N1CCC[C@]12CC=CCCCC1(CCCC=CCCCCCC[C@@](C)(C(=O)N[C@@H](Cc3ccccc3)C(=O)N[C@@H](Cc3csc4ccccc34)C(=O)N[C@@H](CCC(N)=O)C(N)=O)NC(=O)[C@H](CCC(N)=O)NC(=O)[C@H](Cc3ccccc3)NC(=O)[C@H](C)NC(=O)[C@H](C)NC(=O)[C@H](Cc3ccc4ccccc4c3)NC(=O)[C@H](CC(=O)O)NC1=O)NC(=O)[C@H](C)NC(=O)[C@H](CC(=O)O)NC2=O (stereo partly drawn) [I-295, Ac-PL3-Asp-Ala-B5-Asp-2NapA-Ala-Ala-Phe-Gln-S8-Phe-BztA-Gln-NH2]	5000	–	–	1180	2.66
CC(=O)N1CCC[C@]12CC=CCCCC1(CCCC=CCCCCCC[C@@](C)(C(=O)N[C@@H](Cc3ccccc3)C(=O)N[C@@H](Cc3csc4ccccc34)C(=O)N[C@@H](C)C(N)=O)NC(=O)[C@H](CCC(N)=O)NC(=O)[C@H](Cc3ccccc3)NC(=O)[C@H](C)NC(=O)[C@H](C)NC(=O)[C@H](CC(=O)O)NC(=O)[C@H](CC(=O)O)NC1=O)NC(=O)[C@H](CCO)NC(=O)[C@H](CC(=O)O)NC2=O (stereo partly drawn) [I-299, Ac-PL3-Asp-Hse-B5-Asp-Asp-Ala-Ala-Phe-Gln-S8-Phe-BztA-Ala-NH2]	1300	–	–	189	2
CC(=O)N1CCC[C@]12CC=CCCCC1(CCCC=CCCCCCC[C@@](C)(C(=O)N[C@@H](Cc3ccccc3)C(=O)N[C@@H](Cc3c[nH]c4ccccc34)C(=O)N[C@@H](C)C(N)=O)NC(=O)[C@H](CCC(N)=O)NC(=O)[C@H](Cc3ccccc3)NC(=O)[C@H](C)NC(=O)[C@H](C)NC(=O)[C@H](CC(=O)O)NC(=O)[C@H](CC(=O)O)NC1=O)NC(=O)[C@H](C)NC(=O)[C@H](CC(=O)O)NC2=O (stereo partly drawn) [I-316, Ac-PL3-Asp-Ala-B5-Asp-Asp-Ala-Ala-Phe-Gln-S8-Phe-Trp-Ala-NH2]	3980	–	–	136	1.91

Next, values leading:

IC50 [1, 3] [nM]	IC50 [1, 4] [nM]	CHI Log D (CHI Log D procedure)	EC50 [2] [nM]	chromatographic logD (CHI Log D procedure)	SMILES
4950	4950	1.875	534	–	CC(=O)N1CCC[C@]12CC=CCCCC1(CCCC=CCCCCCC[C@@](C)(C(=O)N[C@@H](Cc3ccccc3)C(=O)N[C@@H](Cc3c[nH]c4ccccc34)C(=O)N[C@@H](CCC(N)=O)C(N)=O)NC(=O)[C@H](C)NC(=O)[C@H](Cc3ccccc3)NC(=O)[C@H](C)NC(=O)[C@H](C)NC(=O)[C@H](CC(=O)O)NC(=O)[C@H](CC(=O)O)NC1=O)NC(=O)[C@H](C)NC(=O)[C@H](CC(=O)O)NC2=O (stereo partly drawn) [I-287, Ac-PL3-Asp-Ala-B5-Asp-Asp-Ala-Ala-Phe-Ala-S8-Phe-Trp-Gln-NH2]
3120	3120	2.05	181	–	CC(=O)N1CCC[C@]12CC=CCCCC1(CCCC=CCCCCCC[C@@](C)(C(=O)N[C@@H](Cc3ccccc3)C(=O)N[C@@H](Cc3c[nH]c4ccccc34)C(=O)N[C@@H](CCC(N)=O)C(N)=O)NC(=O)[C@H](C(C)C)NC(=O)[C@H](Cc3ccc(Cl)cc3)NC(=O)[C@H](C)NC(=O)[C@H](C)NC(=O)[C@H](CC(=O)O)NC(=O)[C@H](CC(=O)O)NC1=O)NC(=O)[C@H](C)NC(=O)[C@H](CC(=O)O)NC2=O (stereo partly drawn) [I-309, Ac-PL3-Asp-Ala-B5-Asp-Asp-Ala-Ala-4C1F-Val-S8-Phe-Trp-Gln-NH2]
4630	4630	2.001	121	–	CC(=O)N1CCC[C@]12CC=CCCCC1(CCCC=CCCCCCC[C@@](C)(C(=O)N[C@@H](Cc3ccccc3F)C(=O)N[C@@H](Cc3c[nH]c4ccccc34)C(=O)N[C@@H](CCC(N)=O)C(N)=O)NC(=O)[C@H](C(C)C)NC(=O)[C@H](Cc3ccccc3)NC(=O)[C@H](C)NC(=O)[C@H](C)NC(=O)[C@H](CC(=O)O)NC(=O)[C@H](CC(=O)O)NC1=O)NC(=O)[C@H](C)NC(=O)[C@H](CC(=O)O)NC2=O (stereo partly drawn) [I-318, Ac-PL3-Asp-Ala-B5-Asp-Asp-Ala-Ala-Phe-Val-S8-2FF-Trp-Gln-NH2]
1420	1420	2.019	54	–	CC(=O)N1CCC[C@]12CC=CCCCC1(CCCC=CCCCCCC[C@@](C)(C(=O)N[C@@H](Cc3ccccc3F)C(=O)N[C@@H](Cc3c[nH]c4ccccc34)C(=O)N[C@@H](CCC(N)=O)C(N)=O)NC(=O)[C@H](C(C)C)NC(=O)[C@H](Cc3ccccc3)NC(=O)[C@H](C)NC(=O)[C@H](C)NC(=O)[C@H](CC(=O)O)NC(=O)[C@H](CC(=O)O)NC1=O)NC(=O)[C@H](C)NC(=O)[C@H](CC(=O)O)NC2=O (stereo partly drawn) [I-319, Ac-PL3-Asp-Ala-B5-Asp-Asp-Ala-Ala-Phe-Val-S8-2FF-Trp-Gln-NH2]
